Measured values taken from patent US9533952B2, “N-prop-2-ynyl carboxamide derivatives and their use as TRPA1 antagonists” (Orion Corporation, priority 2012, dated 2017).

Target: TRPA1 (Homo sapiens, UniProt O75762)
Assay: Determination of TRPA1 activity in vitro (TRPA1 antagonism in vitro)
Assay type: cell-based
Details: procedure of Wei et al., Anesthesiology 111 (2009) 147-154

TRPA1, sequence (O75762 whole entry): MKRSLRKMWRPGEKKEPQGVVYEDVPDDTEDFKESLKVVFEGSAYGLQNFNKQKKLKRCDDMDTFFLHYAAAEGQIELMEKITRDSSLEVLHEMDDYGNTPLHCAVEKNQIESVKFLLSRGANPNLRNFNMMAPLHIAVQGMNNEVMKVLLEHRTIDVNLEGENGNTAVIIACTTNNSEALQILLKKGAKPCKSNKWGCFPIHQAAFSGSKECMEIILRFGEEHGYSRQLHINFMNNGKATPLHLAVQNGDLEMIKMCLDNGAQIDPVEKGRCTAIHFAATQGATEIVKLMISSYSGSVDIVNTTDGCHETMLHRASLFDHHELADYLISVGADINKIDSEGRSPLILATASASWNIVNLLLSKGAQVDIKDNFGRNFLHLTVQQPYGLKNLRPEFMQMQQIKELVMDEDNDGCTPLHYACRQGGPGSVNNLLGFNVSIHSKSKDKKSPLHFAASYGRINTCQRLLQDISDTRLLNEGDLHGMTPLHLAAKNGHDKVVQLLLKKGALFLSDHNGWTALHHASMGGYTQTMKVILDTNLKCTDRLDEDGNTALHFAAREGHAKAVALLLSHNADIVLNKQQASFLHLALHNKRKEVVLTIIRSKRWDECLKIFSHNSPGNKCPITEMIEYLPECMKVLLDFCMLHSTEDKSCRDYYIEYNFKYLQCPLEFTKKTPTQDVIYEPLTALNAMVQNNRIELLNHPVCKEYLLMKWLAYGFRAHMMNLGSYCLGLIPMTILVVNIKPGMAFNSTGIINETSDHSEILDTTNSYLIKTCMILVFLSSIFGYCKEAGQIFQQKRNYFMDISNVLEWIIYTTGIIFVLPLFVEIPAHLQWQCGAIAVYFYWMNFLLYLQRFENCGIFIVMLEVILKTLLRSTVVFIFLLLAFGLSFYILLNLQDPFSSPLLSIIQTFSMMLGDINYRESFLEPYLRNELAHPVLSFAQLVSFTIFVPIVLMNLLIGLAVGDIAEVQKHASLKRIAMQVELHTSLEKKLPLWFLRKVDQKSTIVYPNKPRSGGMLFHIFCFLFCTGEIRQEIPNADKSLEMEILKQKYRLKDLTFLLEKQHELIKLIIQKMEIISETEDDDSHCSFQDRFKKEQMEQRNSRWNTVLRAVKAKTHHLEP

| SMILES | IC50 |
| --- | --- |
| C#CC(C)(C)NC(=O)c1cccc2c(C)c(C)[nH]c12 [Example 118, 2,3-Dimethyl-N-(2-methylbut-3-yn-2-yl)-1H-indole-7-carboxamide] | 12.9 µM |
| C#CC(CC)(CC)NC(=O)c1cccc2cc[nH]c12 [Example 119, N-(3-Ethylpent-1-yn-3-yl)-1H-indole-7-carboxamide] | 18.7 µM |
| C#CC(CC)(CC)NC(=O)c1cccc2c1NCCC2 [Example 120, N-(3-Ethylpent-1-yn-3-yl)-1,2,3,4-tetrahydroquinoline-8-carboxamide] | 8.3 µM |
| C#CC(C)(C)NC(=O)c1cccnc1Nc1cccc(F)c1 [Example 121, 2-(3-Fluorophenylamino)-N-(2-methylbut-3-yn-2-yl)nicotinamide] | 1.1 µM |
| C#CC(C)(C)NC(=O)c1cccnc1Nc1ccccc1F [Example 122, 2-(2-Fluorophenylamino)-N-(2-methylbut-3-yn-2-yl)nicotinamide] | 4.8 µM |
| C#CC(C)(C)NC(=O)c1cccnc1NC1CCC(F)(F)CC1 [Example 123, 2-(4,4-Difluorocyclohexylamino)-N-(2-methylbut-3-yn-2-yl)nicotinamide] | 3.8 µM |
| C#CC(C)(C)NC(=O)c1cc(Br)ccc1NCCC [Example 124, 5-Bromo-NV-(2-methylbut-3-yn-2-yl)-2-(propylamino)benzamide] | 0.5 µM |
| C#CC(C)(C)NC(=O)c1cccnc1NC(C)(C)C(F)(F)F [Example 125, N-(2-Methylbut-3-yn-2-yl)-2-(1,1,1-trifluoro-2-methylpropan-2-ylamino)nicotinamide] | 4.6 µM |
| C#CC(C)(C)NC(=O)c1cscc1NCCC [Example 126, N-(2-Methylbut-3-yn-2-yl)-4-(propylamino)thiophene-3-carboxamide] | 8 µM |
| C#CC(C)(C)NC(=O)c1cccnc1Nc1ccccc1 [Example 127, N-(2-Methylbut-3-yn-2-yl)-2-(phenylamino)nicotinamide] | 4.4 µM |
| C#CC(C)(C)NC(=O)c1cc(C(F)(F)F)cnc1NC(C)(C)C [Example 128, 2-(tert-Butylamino)-N-(2-methylbut-3-yn-2-yl)-5-(trifluoromethyl)-nicotinamide] | 1.1 µM |
| C#CC(C)(C)NC(=O)c1cc(Cl)cnc1Nc1ccccc1 [Example 129, 5-Chloro-N-(2-methylbut-3-yn-2-yl)-2-(phenylamino)nicotinamide] | 0.7 µM |
| C#CC(C)(C)NC(=O)c1ccsc1NCCCC [Example 130, 2-(Butylamino)-N-(2-methylbut-3-yn-2-yl)thiophene-3-carboxamide] | 2.1 µM |
| C#CC(C)(C)NC(=O)c1cccnc1Nc1ccc(F)cc1 [Example 131, 2-(4-Fluorophenylamino)-N-(2-methylbut-3-yn-2-yl)nicotinamide] | 1.4 µM |
| C#CC(C)(C)NC(=O)c1cncnc1NCC(F)(F)C(F)(F)F [Example 132, N-(2-Methylbut-3-yn-2-yl)-4-(2,2,3,3,3-pentafluoropropylamino)-pyrimidine-5-carboxamide] | 13.8 µM |
| C#CC(C)(C)NC(=O)c1cccnc1NC1CC(F)(F)C1 [Example 133, 2-(3,3-Difluorocyclobutylamino)-N-(2-methylbut-3-yn-2-yl)nicotinamide] | 5.9 µM |
| C#CC(C)(C)NC(=O)c1ccncc1Nc1ccc(Cl)cc1 [Example 134, 3-((4-Chlorophenyl)amino)-N-(2-methylbut-3-yn-2-yl)isonicotinamide] | 4.3 µM |
| C#CC(C)(C)NC(=O)c1cc(F)cc(F)c1NCCC(F)F [Example 135, 2-(3,3-Difluoropropylamino)-3,5-difluoro-N-(2-methylbut-3-yn-2-yl)benzamide] | 5 µM |
| C#CC(C)(C)NC(=O)c1sccc1NCC(C)C [Example 136, 3-(Isobutylamino)-N-(2-methylbut-3-yn-2-yl)thiophene-2-carboxamide] | 8.7 µM |
| C#CC(C)(C)NC(=O)c1cc(F)cnc1Nc1cc(C)ns1 [Example 137, 5-Fluoro-N-(2-methylbut-3-yn-2-yl)-2-(3-methylisothiazol-5-ylamino)nicotinamide] | 9.9 µM |
| C#CC(C)(C)NC(=O)c1cc(Cl)cnc1Nc1cccnc1 [Example 138, 5-Chloro-N-(2-methylbut-3-yn-2-yl)-2-(pyridin-3-ylamino)nicotinamide] | 12 µM |
| C#CC(C)(C)NC(=O)c1cc(Cl)cnc1NC1CC(F)(F)C1 [Example 139, 5-Chloro-2-(3,3-difluorocyclobutylamino)-N-(2-methylbut-3-yn-2-yl)nicotinamide] | 0.3 µM |
| C#CC(C)(C)NC(=O)c1cc(Cl)cnc1NCCOC(C)(C)C [Example 147, 2-(2-tert-Butoxyethylamino)-5-chloro-N-(2-methylbut-3-yn-2-yl)nicotinamide] | 5.2 µM |

Other lines, results leading:

| IC50 | SMILES |
| --- | --- |
| 5.5 µM | C#CC(C)(C)NC(=O)c1cc(F)cnc1Nc1ccc(C2CCCC2)nc1 [Example 140, 2-(6-Cyclopentylpyridin-3-ylamino)-5-fluoro-N-(2-methylbut-3-yn-2-yl)nicotinamide] |
| 0.3 µM | C#CC(C)(C)NC(=O)c1cc(C(F)(F)F)cnc1NC1CC(F)(F)C1 [Example 141, 2-(3,3-Difluorocyclobutylamino)-N-(2-methylbut-3-yn-2-yl)-5-(trifluoromethyl)nicotinamide] |
| 5.8 µM | C#CC(C)(C)NC(=O)c1cccnc1NCCc1ccccc1 [Example 142, N-(2-Methylbut-3-yn-2-yl)-2-(phenethylamino)nicotinamide] |
| 3.8 µM | C#CC(C)(C)NC(=O)c1cccnc1NCCCc1ccccc1 [Example 143, N-(2-Methylbut-3-yn-2-yl)-2-(3-phenylpropylamino)nicotinamide] |
| 2.6 µM | C#CC(C)(C)NC(=O)c1cc(F)cnc1NCCCOc1ccc(F)cc1 [Example 144, 5-Fluoro-2-(3-(4-fluorophenoxy)propylamino)-N-(2-methylbut-3-yn-2-yl)nicotinamide] |
| 3.3 µM | C#CC(C)(C)NC(=O)c1cc(F)cnc1NCCOc1ccc(F)cc1 [Example 145, 5-Fluoro-2-(2-(4-fluorophenoxy)ethylamino)-N-(2-methylbut-3-yn-2-yl)nicotinamide] |
| 5.9 µM | C#CC(C)(C)NC(=O)c1cc(Cl)cnc1NCCCOCC [Example 146, 5-Chloro-2-(3-ethoxypropylamino)-N-(2-methylbut-3-yn-2-yl)nicotinamide] |
| 14.9 µM | C#CC(C)(C)NC(=O)c1cc(Cl)cnc1NCCOCC [Example 148, 5-Chloro-2-(2-ethoxyethylamino)-N-(2-methylbut-3-yn-2-yl)nicotinamide] |
| 0.5 µM | C#CC(C)(C)NC(=O)c1cccnc1Nc1ccc(C)c(F)c1 [Example 149, 2-(3-Fluoro-4-methylphenylamino)-N-(2-methylbut-3-yn-2-yl)nicotinamide] |
| 1.9 µM | C#CC(C)(C)NC(=O)c1cccnc1Nc1ccc(OC)c(Cl)c1 [Example 150, 2-(3-Chloro-4-methoxyphenylamino)-N-(2-methylbut-3-yn-2-yl)nicotinamide] |
| 0.5 µM | C#CC(C)(C)NC(=O)c1cccnc1Nc1cc(F)cc(F)c1 [Example 151, 2-(3,5-Difluorophenylamino)-N-(2-methylbut-3-yn-2-yl)nicotinamide] |
| 2.4 µM | C#CC(C)(C)NC(=O)c1cc(C(F)F)cnc1NC1CC(F)(F)C1 [Example 152, 2-(3,3-Difluorocyclobutylamino)-5-(difluoromethyl)-N-(2-methylbut-3-yn-2-yl)nicotinamide] |
